Results: PubChem BioAssay AID248 (DTP/NCI, 2004)
Values joined by “and” are separate entries in the source; they are usually repeats but may differ in a detail not shown here. Equal entries are not always repeated. Inconclusive results and toxic doses are left out. Cut-off read from the data, not from the text of the source: active = T/C of 150% or more; inactive = T/C below 125%.

System: L1210 leukemia ip in BDF1 mice, survival T/C
Assay: NCI In Vivo Anticancer Drug Screen. Data for tumor model L1210 Leukemia (intraperitoneal) in B6D2F1 (BDF1) mice
Conditions: endpoint: mean survival time, higher = longer survival
Summary of the method: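 Transplanted-tumor mice were given test agent; controls received vehicle only. Survival readings from the two groups were divided (treated over control).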

[1] = dose: 12.5 mg/kg/injection, schedule: Q01DX001 (ip), vehicle: Klucel (hydroxypropylcellulose) (HPC)
[2] = dose: 25.0 mg/kg/injection, schedule: Q01DX001 (ip), vehicle: Klucel (hydroxypropylcellulose) (HPC)
[3] = dose: 50.0 mg/kg/injection, schedule: Q01DX001 (ip), vehicle: Klucel (hydroxypropylcellulose) (HPC)
[4] = dose: 100.0 mg/kg/injection, schedule: Q01DX009 (ip), vehicle: Klucel (hydroxypropylcellulose) (HPC)
[5] = dose: 200.0 mg/kg/injection, schedule: Q01DX009 (ip), vehicle: Klucel (hydroxypropylcellulose) (HPC)
[6] = dose: 400.0 mg/kg/injection, schedule: Q01DX009 (ip), vehicle: Klucel (hydroxypropylcellulose) (HPC)
[7] = dose: 25.0 mg/kg/injection, schedule: Q01DX009 (ip), vehicle: saline
[8] = dose: 50.0 mg/kg/injection, schedule: Q01DX009 (ip), vehicle: saline
[9] = dose: 100.0 mg/kg/injection, schedule: Q01DX009 (ip), vehicle: saline
[10] = dose: 100.0 mg/kg/injection, schedule: Q01DX001 (ip), vehicle: Klucel (hydroxypropylcellulose) (HPC)
[11] = dose: 100.0 mg/kg/injection, schedule: Q04DX003 (ip), vehicle: other
[12] = dose: 200.0 mg/kg/injection, schedule: Q04DX003 (ip), vehicle: other
[13] = dose: 400.0 mg/kg/injection, schedule: Q04DX003 (ip), vehicle: other

Measured: T/C

Nc1ncnc(N)c1NC(=O)Cc1cccc([N+](=O)[O-])c1
inactive: [1] 101 % of control | [2] 110 % of control | [3] 96 % of control and 103 % of control

OC1CCCC23CCC12CC3 (stereo unspecified)
inactive: dose: 50.0 mg/kg/injection, schedule: Q01DX001 (ip), vehicle: saline with Tween-80 101 % of control | dose: 100.0 mg/kg/injection, schedule: Q01DX001 (ip), vehicle: saline with Tween-80 99 % of control | dose: 200.0 mg/kg/injection, schedule: Q01DX001 (ip), vehicle: saline with Tween-80 96 % of control

COc1ccc(C)cc1NC(=O)Nc1cc([N+](=O)[O-])ccc1C
inactive: [4] 93 % of control | [5] 98 % of control | [6] 102 % of control

CC12CCC(=O)C=C1CCC1C2CCC2(C)C(C(=O)COC(=O)Cc3ccc(N(CCCl)CCCl)cc3)CCC12 (stereo unspecified)
inactive: dose: 100.0 mg/kg/injection, schedule: Q01DX001 (sc), vehicle: steriod suspending solution 99 % of control | dose: 200.0 mg/kg/injection, schedule: Q01DX001 (sc), vehicle: steriod suspending solution 101 % of control | dose: 400.0 mg/kg/injection, schedule: Q01DX001 (sc), vehicle: steriod suspending solution 100 % of control | [6] 90 % of control

COc1ccc(OC(=O)Nc2ccc(Cl)c(Cl)c2)cc1
inactive: [4] 102 % of control | dose: 100.0 mg/kg/injection, schedule: Q04DX003 (ip), vehicle: Klucel (hydroxypropylcellulose) (HPC) 95 % of control | [5] 106 % of control | dose: 200.0 mg/kg/injection, schedule: Q04DX003 (ip), vehicle: Klucel (hydroxypropylcellulose) (HPC) 95 % of control | [6] 95 % of control | dose: 400.0 mg/kg/injection, schedule: Q04DX003 (ip), vehicle: Klucel (hydroxypropylcellulose) (HPC) 102 % of control

C=CCNC(=O)CCl
inactive: [7] 100 % of control | dose: 25.0 mg/kg/injection, schedule: Q04DX003 (ip), vehicle: saline 97 % of control | [8] 99 % of control | dose: 66.0 mg/kg/injection, schedule: Q04DX003 (ip), vehicle: saline 104 % of control | [9] 95 % of control | dose: 100.0 mg/kg/injection, schedule: Q04DX003 (ip), vehicle: saline 106 % of control and 108 % of control | dose: 150.0 mg/kg/injection, schedule: Q04DX003 (ip), vehicle: saline 100 % of control

CCCCCCC(=O)CCC(=O)CCCCCCCC(=O)O
inactive: [3] 103 % of control | [10] 89 % of control | dose: 200.0 mg/kg/injection, schedule: Q01DX001 (ip), vehicle: Klucel (hydroxypropylcellulose) (HPC) 100 % of control

CCOC(=O)CNC(=O)CNC(=O)CNC(=O)CCCCSc1ncnc2nc[nH]c12
inactive: [7] 102 % of control | dose: 25.0 mg/kg/injection, schedule: Q01DX009 (oral), vehicle: saline 106 % of control | [8] 110 % of control | dose: 50.0 mg/kg/injection, schedule: Q01DX009 (oral), vehicle: saline 90 % of control | [9] 96 % of control | dose: 100.0 mg/kg/injection, schedule: Q01DX009 (oral), vehicle: saline 98 % of control | dose: 200.0 mg/kg/injection, schedule: Q01DX009 (ip), vehicle: saline 104 % of control | dose: 200.0 mg/kg/injection, schedule: Q01DX009 (oral), vehicle: saline 95 % of control | dose: 400.0 mg/kg/injection, schedule: Q01DX009 (ip), vehicle: saline 98 % of control | dose: 400.0 mg/kg/injection, schedule: Q01DX009 (oral), vehicle: saline 114 % of control | dose: 800.0 mg/kg/injection, schedule: Q01DX009 (ip), vehicle: saline 96 % of control | dose: 800.0 mg/kg/injection, schedule: Q01DX009 (oral), vehicle: saline 101 % of control

COC(=O)c1ncccc1C(=O)O
inactive: dose: 50.0 mg/kg/injection, schedule: Q01DX009 (ip), vehicle: saline with Tween-80 96 % of control | dose: 100.0 mg/kg/injection, schedule: Q01DX009 (ip), vehicle: saline with Tween-80 93 % of control

CCCC1C2=C(C(=O)OC2=O)C2C(CC)CC3=C(C(=O)OC3=O)C12 (stereo unspecified)
inactive: [1] 90 % of control | [2] 94 % of control | [3] 94 % of control | dose: 56.25 mg/kg/injection, schedule: Q04DX003 (ip), vehicle: Klucel (hydroxypropylcellulose) (HPC) 97 % of control | [10] 95 % of control | dose: 112.5 mg/kg/injection, schedule: Q04DX003 (ip), vehicle: Klucel (hydroxypropylcellulose) (HPC) 95 % of control | dose: 150.0 mg/kg/injection, schedule: Q01DX001 (ip), vehicle: Klucel (hydroxypropylcellulose) (HPC) 89 % of control | dose: 225.0 mg/kg/injection, schedule: Q01DX001 (ip), vehicle: Klucel (hydroxypropylcellulose) (HPC) 97 % of control | dose: 225.0 mg/kg/injection, schedule: Q04DX003 (ip), vehicle: Klucel (hydroxypropylcellulose) (HPC) 94 % of control

Cc1ccc(S(=O)(=O)OCC23CCC2(COS(=O)(=O)c2ccc(C)cc2)COC3)cc1 (stereo unspecified)
inactive: dose: 75.0 mg/kg/injection, schedule: Q01DX001 (ip), vehicle: saline 96 % of control | dose: 75.0 mg/kg/injection, schedule: Q01DX009 (ip), vehicle: saline 94 % of control | dose: 150.0 mg/kg/injection, schedule: Q01DX001 (ip), vehicle: saline 93 % of control | dose: 300.0 mg/kg/injection, schedule: Q01DX001 (ip), vehicle: saline 95 % of control | dose: 300.0 mg/kg/injection, schedule: Q01DX009 (ip), vehicle: saline 89 % of control

CC(=O)OCCc1ccc(C)cc1
inactive: dose: 100.0 mg/kg/injection, schedule: Q04DX002 (ip), vehicle: saline with Tween-80 94 % of control | dose: 200.0 mg/kg/injection, schedule: Q04DX002 (ip), vehicle: saline with Tween-80 97 % of control | dose: 400.0 mg/kg/injection, schedule: Q04DX002 (ip), vehicle: saline with Tween-80 94 % of control

COc1ccc(/C=C2/CN(c3ccc(C(=O)O)cc3)C(=O)C2=O)cc1
inactive: dose: 100.0 mg/kg/injection, schedule: Q01DX001 (ip), vehicle: saline 95 % of control | dose: 200.0 mg/kg/injection, schedule: Q01DX001 (ip), vehicle: saline 98 % of control | dose: 400.0 mg/kg/injection, schedule: Q01DX001 (ip), vehicle: saline 98 % of control

COc1ccc(O)cc1C
inactive: [11] 104 % of control | [12] 107 % of control | [13] 117 % of control

NC(=S)NO
inactive: dose: 50.0 mg/kg/injection, schedule: Q04DX003 (ip), vehicle: other 101 % of control | [11] 107 % of control | [12] 104 % of control | [13] 96 % of control

CCCN(CC#N)CCC
inactive: dose: 3.0 mg/kg/injection, schedule: Q01DX009 (ip), vehicle: Klucel (hydroxypropylcellulose) (HPC) 97 % of control | dose: 6.0 mg/kg/injection, schedule: Q01DX009 (ip), vehicle: Klucel (hydroxypropylcellulose) (HPC) 97 % of control | dose: 6.0 mg/kg/injection, schedule: Q04DX003 (ip), vehicle: Klucel (hydroxypropylcellulose) (HPC) 98 % of control | dose: 12.0 mg/kg/injection, schedule: Q01DX009 (ip), vehicle: Klucel (hydroxypropylcellulose) (HPC) 97 % of control | dose: 12.0 mg/kg/injection, schedule: Q04DX003 (ip), vehicle: Klucel (hydroxypropylcellulose) (HPC) 107 % of control | dose: 25.0 mg/kg/injection, schedule: Q04DX003 (ip), vehicle: Klucel (hydroxypropylcellulose) (HPC) 96 % of control
